# Source: ChEMBL document CHEMBL4706587 (Eur J Med Chem, 2020)
# What was measured:
# [1] = biological target: 5-hydroxytryptamine receptor 6 (Homo sapiens, UniProt P50406); assay: Displacement of [3H]-LSD from human 5HT6 receptor expressed in HEK293 cells measured after 1 hr by microbeta plate reader method; assay type: cell-based
# [2] = biological target: T1, Amine oxidase [flavin-containing] B (Homo sapiens, UniProt P27338); assay: Inhibition of recombinant human MAO-B expressed in baculovirus infected BTI insect cells using p-tyramine as substrate preincubated for 30 mins followed by substrate addition and measured after 1 hr by fluorimetric analysis
# T1 sequence (P27338 whole entry): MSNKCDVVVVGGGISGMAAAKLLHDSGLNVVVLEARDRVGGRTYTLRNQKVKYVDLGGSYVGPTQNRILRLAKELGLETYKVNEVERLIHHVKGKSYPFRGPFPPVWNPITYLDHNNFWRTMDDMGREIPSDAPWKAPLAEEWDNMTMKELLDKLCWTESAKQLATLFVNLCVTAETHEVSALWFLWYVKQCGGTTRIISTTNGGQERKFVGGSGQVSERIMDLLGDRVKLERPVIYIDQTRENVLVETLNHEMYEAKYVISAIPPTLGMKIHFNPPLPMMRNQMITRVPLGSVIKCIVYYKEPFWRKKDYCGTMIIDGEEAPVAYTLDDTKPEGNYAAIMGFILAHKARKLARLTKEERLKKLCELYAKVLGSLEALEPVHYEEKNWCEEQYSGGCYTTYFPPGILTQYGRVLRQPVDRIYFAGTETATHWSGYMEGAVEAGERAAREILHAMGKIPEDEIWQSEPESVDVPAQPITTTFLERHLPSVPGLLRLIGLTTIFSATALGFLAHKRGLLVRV
# [3] = biological target: T1, Amine oxidase [flavin-containing] B; details: BTI, 1 h, read-out: INH
# Description: Inhibition of recombinant human MAO-B expressed in baculovirus infected BTI insect cells at 1 uM using p-tyramine as substrate preincubated for 30 mins followed by substrate addition and measured after 1 hr by fluorimetric analysis relative to control
# [4] = biological target: T2, 5-hydroxytryptamine receptor 1A (Homo sapiens, UniProt P08908); assay: Displacement of [3H]8-OH-DPAT from human 5HT1A receptor expressed in HEK293 cells incubated at room temperature for 1 hr by microbeta plate reader analysis; assay type: cell-based
# T2 sequence (P08908 whole entry): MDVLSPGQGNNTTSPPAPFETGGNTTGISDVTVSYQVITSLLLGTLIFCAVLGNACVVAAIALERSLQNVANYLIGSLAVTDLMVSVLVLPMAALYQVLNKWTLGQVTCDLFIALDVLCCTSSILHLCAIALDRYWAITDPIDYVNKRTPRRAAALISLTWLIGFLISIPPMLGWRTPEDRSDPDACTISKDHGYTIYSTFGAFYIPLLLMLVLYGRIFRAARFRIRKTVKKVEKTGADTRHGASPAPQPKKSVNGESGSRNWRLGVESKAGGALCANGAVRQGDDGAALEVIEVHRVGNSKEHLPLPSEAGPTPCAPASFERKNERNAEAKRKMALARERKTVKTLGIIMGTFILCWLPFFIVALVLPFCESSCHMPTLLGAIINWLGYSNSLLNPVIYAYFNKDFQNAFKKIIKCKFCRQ
# [5] = biological target: 5-hydroxytryptamine receptor 2A (Homo sapiens, UniProt P28223); assay: Displacement of [3H]-Ketanserin from human 5HT2A receptor expressed in CHOK1 cells incubated at 27 degree C for 1 hr by microbeta plate reader analysis; assay type: cell-based, CHO-K1
# Chain of 5-hydroxytryptamine receptor 2A (P28223 whole entry): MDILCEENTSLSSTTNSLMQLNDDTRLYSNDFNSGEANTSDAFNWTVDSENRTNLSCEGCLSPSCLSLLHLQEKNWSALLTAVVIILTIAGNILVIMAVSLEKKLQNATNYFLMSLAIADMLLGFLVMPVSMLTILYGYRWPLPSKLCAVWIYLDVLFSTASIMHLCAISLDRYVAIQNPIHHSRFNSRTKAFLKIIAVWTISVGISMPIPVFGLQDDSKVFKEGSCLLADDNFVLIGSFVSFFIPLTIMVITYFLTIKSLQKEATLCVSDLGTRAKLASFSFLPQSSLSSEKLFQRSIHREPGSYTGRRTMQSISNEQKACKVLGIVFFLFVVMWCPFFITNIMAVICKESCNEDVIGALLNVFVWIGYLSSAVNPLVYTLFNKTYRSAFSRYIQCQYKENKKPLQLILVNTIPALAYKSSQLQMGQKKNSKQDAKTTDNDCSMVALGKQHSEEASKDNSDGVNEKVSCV
# [6] = biological target: 5-hydroxytryptamine receptor 7 (Homo sapiens, UniProt P34969); assay: Displacement of [3H]-5-CT from human 5HT7 receptor expressed in HEK293 cells measured after 1 hr by microbeta plate reader analysis; assay type: cell-based
# Chain of 5-hydroxytryptamine receptor 7 (P34969 whole entry): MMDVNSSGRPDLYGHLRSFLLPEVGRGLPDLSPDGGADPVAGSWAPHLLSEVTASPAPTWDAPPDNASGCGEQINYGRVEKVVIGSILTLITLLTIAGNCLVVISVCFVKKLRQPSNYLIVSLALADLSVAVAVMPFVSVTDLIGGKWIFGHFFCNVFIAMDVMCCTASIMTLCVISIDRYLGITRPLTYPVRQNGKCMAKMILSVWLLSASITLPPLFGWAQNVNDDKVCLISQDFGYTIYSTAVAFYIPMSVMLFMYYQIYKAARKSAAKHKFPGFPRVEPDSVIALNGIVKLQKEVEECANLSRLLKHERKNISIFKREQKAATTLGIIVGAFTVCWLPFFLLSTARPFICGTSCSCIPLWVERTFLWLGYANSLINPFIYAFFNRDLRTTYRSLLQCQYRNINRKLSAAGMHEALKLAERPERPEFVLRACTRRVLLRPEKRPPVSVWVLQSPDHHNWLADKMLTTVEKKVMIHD
# D(2) dopamine receptor = D(2) dopamine receptor (Homo sapiens, UniProt P14416); assay: Displacement of [3H]-raclopride from human D2 receptor expressed in HEK293 cells measured after 1 hr by microbeta plate reader analysis; assay type: cell-based
# Chain of D(2) dopamine receptor (P14416 whole entry): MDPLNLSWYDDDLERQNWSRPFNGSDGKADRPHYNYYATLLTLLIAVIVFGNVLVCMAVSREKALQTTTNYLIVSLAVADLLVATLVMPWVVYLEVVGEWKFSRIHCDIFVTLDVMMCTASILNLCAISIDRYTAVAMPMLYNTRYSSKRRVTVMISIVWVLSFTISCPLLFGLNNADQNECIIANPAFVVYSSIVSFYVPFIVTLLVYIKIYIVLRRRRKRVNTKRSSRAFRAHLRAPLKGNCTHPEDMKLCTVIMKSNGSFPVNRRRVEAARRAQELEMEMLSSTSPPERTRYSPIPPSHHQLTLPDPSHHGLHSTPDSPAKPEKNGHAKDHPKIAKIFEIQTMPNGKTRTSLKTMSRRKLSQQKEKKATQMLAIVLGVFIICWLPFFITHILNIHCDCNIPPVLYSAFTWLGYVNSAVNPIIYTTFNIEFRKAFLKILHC
# [7] = biological target: T3, Amine oxidase [flavin-containing] A (Homo sapiens, UniProt P21397); assay: Inhibition of recombinant human MAO-A expressed in baculovirus infected BTI insect cells using p-tyramine as substrate preincubated for 30 mins followed by substrate addition and measured after 1 hr by fluorimetric analysis
# T3 sequence (P21397 whole entry): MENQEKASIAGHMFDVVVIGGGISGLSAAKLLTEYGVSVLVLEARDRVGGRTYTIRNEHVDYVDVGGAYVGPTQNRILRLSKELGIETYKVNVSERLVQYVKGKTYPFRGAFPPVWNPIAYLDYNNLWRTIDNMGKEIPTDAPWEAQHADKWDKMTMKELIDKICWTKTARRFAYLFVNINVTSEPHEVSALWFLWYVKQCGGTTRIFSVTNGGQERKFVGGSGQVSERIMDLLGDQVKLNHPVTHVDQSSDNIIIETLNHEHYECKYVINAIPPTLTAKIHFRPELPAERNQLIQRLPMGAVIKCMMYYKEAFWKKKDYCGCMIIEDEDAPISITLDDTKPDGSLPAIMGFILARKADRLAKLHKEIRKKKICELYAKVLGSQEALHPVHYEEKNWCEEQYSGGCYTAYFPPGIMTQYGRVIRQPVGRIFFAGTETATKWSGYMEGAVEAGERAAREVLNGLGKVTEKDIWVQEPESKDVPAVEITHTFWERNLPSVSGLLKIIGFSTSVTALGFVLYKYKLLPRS
# [8] = biological target: T4, adrenergic alpha1A receptor (Homo sapiens, UniProt P35348); assay: Displacement of [3H]-prazosin from human recombinant adrenergic alpha1A receptor at 1 uM incubated for 60 mins by radiometric scintillation analysis relative to control; details: probe [3H]-prazosin
# T4 sequence (P35348 whole entry): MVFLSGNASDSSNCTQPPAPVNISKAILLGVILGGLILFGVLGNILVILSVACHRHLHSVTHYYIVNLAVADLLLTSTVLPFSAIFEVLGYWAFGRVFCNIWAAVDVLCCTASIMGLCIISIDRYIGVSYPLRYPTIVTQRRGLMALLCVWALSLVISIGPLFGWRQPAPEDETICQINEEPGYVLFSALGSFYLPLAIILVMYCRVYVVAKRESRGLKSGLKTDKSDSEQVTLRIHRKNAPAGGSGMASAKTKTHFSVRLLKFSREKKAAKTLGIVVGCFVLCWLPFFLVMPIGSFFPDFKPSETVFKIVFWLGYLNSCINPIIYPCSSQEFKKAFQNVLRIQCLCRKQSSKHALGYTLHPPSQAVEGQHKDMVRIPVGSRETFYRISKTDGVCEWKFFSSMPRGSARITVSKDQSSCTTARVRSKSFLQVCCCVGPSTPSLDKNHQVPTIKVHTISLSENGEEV
# beta1 adrenoceptor = beta1 adrenoceptor (Homo sapiens, UniProt P08588); assay: Displacement of [3H](-)CGP 12177 from human recombinant beta1 adrenoceptor at 1 uM after 60 mins by radiometric scintillation analysis relative to control; details: probe [3H](-)CGP 12177
# Chain of beta1 adrenoceptor (P08588 whole entry): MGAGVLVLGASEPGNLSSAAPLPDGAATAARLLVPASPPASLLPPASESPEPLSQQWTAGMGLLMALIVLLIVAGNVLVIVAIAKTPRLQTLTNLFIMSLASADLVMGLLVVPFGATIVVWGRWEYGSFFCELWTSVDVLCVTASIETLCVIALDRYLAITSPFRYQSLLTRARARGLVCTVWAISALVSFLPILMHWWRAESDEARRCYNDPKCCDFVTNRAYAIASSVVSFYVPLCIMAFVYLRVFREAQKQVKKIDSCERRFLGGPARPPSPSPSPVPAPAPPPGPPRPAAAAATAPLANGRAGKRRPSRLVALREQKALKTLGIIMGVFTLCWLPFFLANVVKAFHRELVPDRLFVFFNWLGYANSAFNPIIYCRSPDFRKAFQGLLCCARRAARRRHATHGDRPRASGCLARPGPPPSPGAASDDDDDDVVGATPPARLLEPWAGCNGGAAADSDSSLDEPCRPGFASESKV
# histamine H1 receptor = histamine H1 receptor (Homo sapiens, UniProt P35367); assay: Displacement of [3H]pyrilamine from human recombinant histamine H1 receptor at 1 uM after 60 mins by radiometric scintillation analysis relative to control; details: probe [3H]pyrilamine
# Chain of histamine H1 receptor (P35367 whole entry): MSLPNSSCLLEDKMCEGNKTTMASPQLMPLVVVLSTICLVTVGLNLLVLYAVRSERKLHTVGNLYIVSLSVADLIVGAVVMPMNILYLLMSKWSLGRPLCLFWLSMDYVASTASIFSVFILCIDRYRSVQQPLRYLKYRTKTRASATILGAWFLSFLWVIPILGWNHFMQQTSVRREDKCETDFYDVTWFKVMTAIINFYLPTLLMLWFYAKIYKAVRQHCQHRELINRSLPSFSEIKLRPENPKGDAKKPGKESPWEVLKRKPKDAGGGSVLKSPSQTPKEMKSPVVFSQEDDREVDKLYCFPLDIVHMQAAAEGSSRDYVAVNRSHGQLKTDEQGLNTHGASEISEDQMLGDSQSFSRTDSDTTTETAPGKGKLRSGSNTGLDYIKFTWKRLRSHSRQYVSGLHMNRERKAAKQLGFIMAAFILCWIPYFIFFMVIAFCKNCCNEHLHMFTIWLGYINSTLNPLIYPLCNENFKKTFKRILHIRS
# muscarinic M1 receptor = biological target: T5, muscarinic M1 receptor (Homo sapiens, UniProt P11229); assay: Displacement of [3H]pirenzepine from human recombinant muscarinic M1 receptor at 1 uM after 60 mins by radiometric scintillation analysis relative to control; details: probe [3H]pirenzepine
# T5 sequence (P11229 whole entry): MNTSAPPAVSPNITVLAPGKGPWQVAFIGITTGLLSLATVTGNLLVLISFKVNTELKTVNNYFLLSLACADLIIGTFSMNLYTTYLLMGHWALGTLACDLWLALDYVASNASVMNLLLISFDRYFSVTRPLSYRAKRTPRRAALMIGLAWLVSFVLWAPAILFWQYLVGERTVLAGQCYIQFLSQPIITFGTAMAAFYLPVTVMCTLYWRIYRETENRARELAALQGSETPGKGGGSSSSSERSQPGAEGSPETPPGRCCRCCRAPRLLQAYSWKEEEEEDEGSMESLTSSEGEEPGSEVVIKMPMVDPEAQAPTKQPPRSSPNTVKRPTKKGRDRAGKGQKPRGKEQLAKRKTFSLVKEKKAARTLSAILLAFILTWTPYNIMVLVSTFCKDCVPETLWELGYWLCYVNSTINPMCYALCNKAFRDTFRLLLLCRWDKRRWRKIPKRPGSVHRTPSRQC
# [9] = Effective permeability of compound in PBS at pH 7.4 at 100 uM incubated for 5 hrs by PAMPA-BBB based UPLC-MS analysis; assay type: ADME; details: read-out: Peff
# [10] = Metabolic stability in rat liver microsomes assessed as intrinsic clearance at 10 uM incubated for 10 mins followed by NADPH regeneration system addition and measured after 60 mins by UPLC-MS analysis; assay type: ADME, Microsome; details: time 70 min, read-out: CLH
# [11] = Cmax in Wistar rat at 3 mg/kg, po measured up to 240 mins; assay type: ADME, organism-based; design: route oral, dose 3 mg/kg, time <=240; details: in vivo
# [12] = Tmax in Wistar rat at 3 mg/kg, po measured up to 240 mins; assay type: ADME, organism-based; details: in vivo
# [13] = Half life in Wistar rat at 3 mg/kg, po measured up to 240 mins; assay type: ADME, organism-based; details: in vivo
# [14] = Cytotoxicity against mouse C8D1A astrocytes upto 25 uM by MTT assay; details: astrocyte
# [15] = Cytotoxicity against mouse C8D1A astrocytes upto 25 uM by LDH assay; details: astrocyte
# Chain of 5-hydroxytryptamine receptor 6 (P50406 whole entry): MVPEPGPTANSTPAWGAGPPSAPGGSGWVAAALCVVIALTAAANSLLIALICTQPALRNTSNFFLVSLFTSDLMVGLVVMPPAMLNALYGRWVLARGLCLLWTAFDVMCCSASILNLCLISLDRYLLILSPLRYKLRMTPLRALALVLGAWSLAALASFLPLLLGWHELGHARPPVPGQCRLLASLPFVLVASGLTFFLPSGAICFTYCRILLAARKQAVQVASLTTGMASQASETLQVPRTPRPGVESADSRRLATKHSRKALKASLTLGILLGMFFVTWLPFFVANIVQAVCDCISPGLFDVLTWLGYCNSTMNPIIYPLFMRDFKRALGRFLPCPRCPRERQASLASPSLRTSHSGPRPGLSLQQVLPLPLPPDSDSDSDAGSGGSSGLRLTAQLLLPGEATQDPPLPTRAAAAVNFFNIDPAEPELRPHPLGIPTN
Ki [1] [nM],IC50 [2] [nM],inhibition at 1 µM [3] [%],SMILES,also measured
232,> 1000,43,C[C@H](NCc1ccc(OCCCCCN2CCN(c3cccc4c3ccn4Cc3cccc(Cl)c3)CC2)cc1)C(N)=O,
223,460,80,C#CCNC1CCc2c(OCCCCCN3CCN(c4cccc5c4ccn5Cc4cccc(Cl)c4)CC3)cccc21 (stereo not drawn),
140,30,100,C#CCN(C)Cc1ccc(OCCCCCN2CCN(c3cccc4c3ccn4Cc3cccc(Cl)c3)CC2)cc1,
68,> 1000,20,C[C@H](NCc1ccc(OCCCCN2CCN(c3cccc4c3ccn4S(=O)(=O)c3ccccc3)CC2)cc1)C(N)=O,
113,270,100,C#CCNC1CCc2c(OCCCCN3CCN(c4cccc5c4ccn5Cc4cccc(Cl)c4)CC3)cccc21 (stereo not drawn),
162,> 1000,24,C[C@H](NCc1ccc(OCCCCN2CCN(c3cccc4c3ccn4Cc3cccc(Cl)c3)CC2)cc1)C(N)=O,
137,> 1000,32,C#CCN(C)Cc1ccc(OCCCCCCN2CCN(c3cccc4c3ccn4Cc3cccc(Cl)c3)CC2)cc1,
51,163,90,C#CCNC1CCc2c(OCCCCCN3CCN(c4cccc5c4ccn5S(=O)(=O)c4ccccc4)CC3)cccc21 (stereo not drawn),
158,> 1000,47,C[C@H](NCc1ccc(OCCCN2CCN(c3cccc4c3ccn4Cc3cccc(Cl)c3)CC2)cc1)C(N)=O,
100,> 1000,35,C#CCNC1CCc2c(OCCN3CCN(c4cccc5c4ccn5Cc4cccc(Cl)c4)CC3)cccc21 (stereo not drawn),
195,323,85,C#CCN(C)Cc1ccc(OCCCCN2CCN(c3cccc4c3ccn4Cc3cccc(Cl)c3)CC2)cc1,
,154,91,C#CCN(C)Cc1ccc(OCCCCCN2CCN(c3cccc4c3ccn4S(=O)(=O)c3ccccc3)CC2)cc1,"Ki [4]: 684 nM; Ki [5]: 420 nM; Ki [6]: 8000 nM; Ki (D(2) dopamine receptor): 813 nM; IC50 [7]: 1040 nM; inhibition at 1 h, 1 µM [8]: 37%; inhibition at 1 h, 1 µM (beta1 adrenoceptor): 5%; inhibition at 1 h, 1 µM (histamine H1 receptor): 13%; inhibition at 1 h, 1 µM (muscarinic M1 receptor): 4%; Papp at 5 h, 100 µM [9]: 4.84 ×10⁻⁶ cm/s; CLint scaled at 10 µM [10]: 85 mL/min/kg; Cmax [11]: 72.7 ng/mL; Tmax [12]: 0.5 h; half-life [13]: 28 h; Activity [14]: Non-Toxic; Activity [15]: Non-Toxic"
65,> 1000,17,C[C@H](NCc1ccc(OCCCCCN2CCN(c3cccc4c3ccn4S(=O)(=O)c3ccccc3)CC2)cc1)C(N)=O,
1.4,,,C#CCN[C@@H]1CCc2ccccc21 [RASAGILINE],
54,> 1000,51,C#CCN(C)Cc1ccc(OCCCCN2CCN(c3cccc4c3ccn4S(=O)(=O)c3ccccc3)CC2)cc1,
50,> 1000,44,C#CCNC1CCc2c(OCCCCN3CCN(c4cccc5c4ccn5S(=O)(=O)c4ccccc4)CC3)cccc21 (stereo not drawn),
259,> 1000,34,C#CCNC1CCc2c(OCCCCCCN3CCN(c4cccc5c4ccn5Cc4cccc(Cl)c4)CC3)cccc21 (stereo not drawn),
77,> 1000,31,C#CCNC1CCc2c(OCCCN3CCN(c4cccc5c4ccn5Cc4cccc(Cl)c4)CC3)cccc21 (stereo not drawn),
340,> 1000,23,C[C@H](NCc1ccc(OCCCCCCN2CCN(c3cccc4c3ccn4Cc3cccc(Cl)c3)CC2)cc1)C(N)=O,

SMILES,Ki [1] [nM],IC50 [2] [nM],inhibition at 1 µM [3] [%],also measured
O=S(=O)(c1ccccc1)n1ccc2c(N3CCNCC3)cccc21,,,3,
Clc1cccc(Cn2ccc3c(N4CCNCC4)cccc32)c1,7,,3,
